Consider four compounds from patent US12528807B2, “Solid forms of {6-[(2-amino-3-chloropyridin-4-yl)sulfanyl]-3-[(3S,4S)-4-amino-3-methyl-2-oxa-8-azaspiro[4.5]decan-8-yl]-5-methylpyrazin-2-yl} methanol, a SHP2 inhibitor” (Revolution Medicines, Inc., priority 2019, dated 2026).

A short description of the series: Relative thermodynamic stability of the anhydrous polymorphs and transition temperatures between them (thermal techniques). Type of series: physicochemical. To be noted: for Temperature at which the form is thermodynamically (physically) stable: approximate. On the procedure: Forms A, B, C, and D are anhydrous polymorphs of Compound 1. Thermal techniques provide data that the relative stability of the forms change with temperature. Both Forms A and C are enantiotropically related to each other and to Form D; Form A is thermodynamically stable above approximately 80° C., Form C is the stable form between approximately 80 and 43° C., and Form D is physically stable below approximately 43° C. […]
Differential scanning calorimetry performed using TA instruments Q2000: Temperature calibration was performed using NIST-traceable indium metal. The sample was placed into an aluminum Tzero crimped pan and the weight was accurately recorded. A weighed aluminum pan configured as the sample pan was placed on the reference side of the cell. The samples were analyzed from −30 to 250° C. at a ramp rate of 10° C./min.
Differential scanning calorimetry performed using Mettler-Toledo DSC3+: Temperature calibration was performed using adamantane, phenyl salicylate, indium, tin, and zinc. The sample was placed into a hermetically sealed or an open aluminum DSC pan, and the weight was accurately recorded. A weighed aluminum pan configured as the sample pan was placed on the reference side of the cell. The samples were analyzed from −30 to 250° C. at a ramp rate of 10° C./min. Although thermograms are plotted by reference temperature (x-axis), results are reported according to sample temperatures.

On to `Cc1nc(N2CCC3(CC2)CO[C@@H](C)[C@H]3N)c(CO)nc1Sc1ccnc(N)c1Cl` [Compound 1 Form A, {6-[(2-amino-3-chloropyridin-4-yl)sulfanyl]-3-[(3S,4S)-4-amino-3-methyl-2-oxa-8-azaspiro[4.5]decan-8-yl]-5-methylpyrazin-2-yl}methanol], for which the “Conversion between Forms A, C, and D upon reaching the corresponding relevant temperatures” value (from here on “Conversion between Forms A, C”) was “immediate (and reversible)”; the “Temperature at which the form is thermodynamically (physically) stable” value (“Temperature … (physically) stable” for short) is > 80 °C; the “Estimated Transition Point Temperature between Enantiotropic Polymorphs, to Form D” value is ~65 °C. The “Relative Thermodynamic Stability of Polymorphs” value (“Relative Thermodynamic Stability” below) (above ~80° C.) is “A > (C and D and B)”. In addition, under “listed as Form A”, the “Temperature … (physically) stable” value was > 80 °C. The “Relative Thermodynamic Stability” value (between ~43 and ~65° C.) is “C > D > A > B”. Further, where the note is “between ~65 and ~80° C.”, the “Relative Thermodynamic Stability” value was “C > A > (D and B)”. The “Relationship to Form B (table of estimated transition point temperatures)” value (relative to Form B) is recorded as “monotropic”. Moreover, for the setting “subambient up to ~43° C.”, the “Relative Thermodynamic Stability” value was “D > C > A > B”. In addition, the “Estimated Transition Point Temperature between Enantiotropic Polymorphs, to Form C” value (transition to Form C) is ~80 °C.

On to `Cc1nc(N2CCC3(CC2)CO[C@@H](C)[C@H]3N)c(CO)nc1Sc1ccnc(N)c1Cl` [Compound 1 Form B, {6-[(2-amino-3-chloropyridin-4-yl)sulfanyl]-3-[(3S,4S)-4-amino-3-methyl-2-oxa-8-azaspiro[4.5]decan-8-yl]-5-methylpyrazin-2-yl}methanol], for which the “Thermodynamic stability in words” value was “metastable form at all temperatures”.

`Cc1nc(N2CCC3(CC2)CO[C@@H](C)[C@H]3N)c(CO)nc1Sc1ccnc(N)c1Cl` [Compound 1 Form C, {6-[(2-amino-3-chloropyridin-4-yl)sulfanyl]-3-[(3S,4S)-4-amino-3-methyl-2-oxa-8-azaspiro[4.5]decan-8-yl]-5-methylpyrazin-2-yl}methanol]: the “Conversion between Forms A, C” value is “immediate (and reversible)”; the “Estimated Transition Point Temperature between Enantiotropic Polymorphs, to Form D” value was ~43 °C. Besides, under “above ~80° C.”, the “Relative Thermodynamic Stability” value was “A > (C and D and B)”. In addition, the “Relative Thermodynamic Stability” value (between ~43 and ~65° C.) was “C > D > A > B”. Also, the “Relative Thermodynamic Stability” value (between ~65 and ~80° C.) was “C > A > (D and B)”. For the same compound, the “Relative Thermodynamic Stability” value (subambient up to ~43° C.) is “D > C > A > B”.

For `Cc1nc(N2CCC3(CC2)CO[C@@H](C)[C@H]3N)c(CO)nc1Sc1ccnc(N)c1Cl` [Compound 1 Form D, {6-[(2-amino-3-chloropyridin-4-yl)sulfanyl]-3-[(3S,4S)-4-amino-3-methyl-2-oxa-8-azaspiro[4.5]decan-8-yl]-5-methylpyrazin-2-yl}methanol], the “Conversion between Forms A, C” value is given as “immediate (and reversible)”; the “Temperature … (physically) stable” value is < 43 °C. Also, the “Relative Thermodynamic Stability” value (above ~80° C.) was “A > (C and D and B)”. For the same compound, the “Temperature … (physically) stable” value (listed as Form D) is < 43 °C. Under “between ~43 and ~65° C.”, the “Relative Thermodynamic Stability” value was “C > D > A > B”. The “Relative Thermodynamic Stability” value (between ~65 and ~80° C.) is “C > A > (D and B)”. Moreover, for the setting “subambient up to ~43° C.”, the “Relative Thermodynamic Stability” value is reported as “D > C > A > B”.
